In patent US20250319115A1, “Compositions and Methods for Modulating Cytokines” (Flagship Pioneering Innovations VII, LLC, priority 2022, published 2025):

Columns and labels:
IL-4 signaling pathway = assay: HEK-Blue IL-4 SEAP reporter assay; format: cell-based
Experimental: The effects of putative inhibitors on pro-inflammatory cytokine pathways are assessed using HEK-Blue cells engineered for the detection of bioactive cytokines via activation of JAK/STAT pathways and subsequent expression of the SEAP reporter gene. Cells are treated with their relevant cytokines+/−peptides or control antibodies, and 20 hours after treatment activation of the relevant cytokine receptor is determined via SEAP expression through mixing cell supernatants with a Quanti-Blue colorimetric reagent and measuring optical density at 600 nm.
Reporter lines HEK-Blue TL-4/TL-15/IFN-alpha were cultured in DMEM with GlutaMAX and 10% HI FBS (Gibco). Cells were seeded into black 96-well optical clear flat-bottomed PhenoPlates at densities of 25000 cells/well and 100 uL/well and allowed to rest overnight in a 37 C incubator with 5% CO2. After 24 hours, cells were treated with 10 μL of their relevant cytokines (StemCell Technologies) at the previously determined EC75 for activation (1.164 ng/mL for HEK-Blue IL-4, 2.26 ng/mL for HEK-Blue IL-15, and 0.456 ng/mL for HEK-Blue IFN-alpha), with or without 10 μL of peptides (5 uM final concentration) or control antibodies (1 ug/well). Cells were kept overnight in a 37 C incubator with 5% C02.
20-22 hours after treatment, 20 μL of the cell supernatants were collected and transferred to 96-well white flat opaque-bottom plates (Costar) and each sample was mixed with 180 μL of Quanti-Blue reagent. Colorimetric reactions were allowed to develop in a 37 C incubator with 5% C02 for a certain duration of time (3 hours for HEK-Blue IL-4, 2 hours for HEK-Blue IL-15, and 1 hour for IFN-alpha). Assay plates were then removed from the incubator and the optical density of each well was measured at 600 nm on a GloMax plate reader. Relative activation of the cytokine signaling pathway in question was determined by ratioing the optical density of each sample to the average optical density for the cytokine-only treated cells from the same plate.

[1] = system: CD3/CD28 (TransAct) activated PBMCs; assay: PBMC cytokine release by Cytometric BeadArray, Inhibition format (peptide with anti-CD3/CD28 T-cell activator); format: cell-based, human; design: key to Inhibition by Analyte: IL-1b / Inhibition by Analyte: IL-2 / Inhibition by Analyte: TNF / Inhibition by Analyte: IP-10 / Inhibition by Analyte: IL-10: X = a hit with significant activation or inhibition of relevant cytokine release; conditions: peptide applied with anti-CD3/CD28 T-cell activator, 24 hours, supernatant CBA
Experimental: Peripheral Blood Mononuclear Cells were seeded+/−the T-cell activator […] and +/−peptides for 24-48 hours. Cytokines were measured from the supernatant after incubation by CBA Cytometer.
Thawing PBMCs: PBMCs were thawed by pre-warming TexMACS media (Miltenyi Biotech) in 20 ml aliquots-1-50 ml conical per donor. After the media was warmed to 37° C., cells were removed from liquid nitrogen and brought to the tissue culture hood. For each donor, 1 ml of media from the warmed aliquot was added to the frozen vial and mixed up and down. The media plus thawed cells were then added back to the 50 ml conical. This was repeated until all the cells were thawed and added to the 50 ml tube. Continue with other donors if used. Spin cells for 5 min at 400×g. Supernatant was aspirated and cells resuspended at ˜10*10^6 cells/ml (see vial for cell number).
PBMC Plating: Frozen PBMCs from normal, healthy, human volunteers (StemCell Technologies) were thawed and plated at 250,000 cells/well. After PBMCs were thawed and resuspended at […], cells were then counted (Countess III, Thermo Scientific) and adjusted based on counts to […]. Take the number of PBMCs determined by number of wells for the experiment, for example, 10 wells would need 2.5*10^6 cells total or 0.250 ml. The cells needed for the experiment are then transferred to another conical tube. Warmed TexMACS media is added so that the final concentration is 250,000 cells/190 ul media, for example, 10 wells would need 1.9 ml (190 ul×10 wells) of media total minus 0.250 ml of cells (1.9 ml-0.250 ml) or 1.65 ml of media added to the 0.250 ml of cells. Add 190 ul of cells plus media to the 96 well U-bottom plate. Place in incubator until dilutions are made and ready.
Peptide Dilutions: Ideally, all peptides should be at a starting concentration of at least 10 mM, especially for those in DMSO (ATCC) to reach a final concentration of 1 uM (H2O) or 0.5 uM (DMSO). Dilutions of all test articles should be made at 20× the final concentration, for example, a final concentration of 1 uM peptide would need to be made at 20 uM.
Reagent Dilution: Dilutions are made in TexMACS media, enough for 10 ul/well in triplicate (30 ul of a 20×). Activator—CD3/CD28 (TransAct; Miltenyi Biotech) or cytokine will be at 21× and added after the 45-minute incubation with peptides. Be sure to include relevant controls—Positive: TransAct+Cells, Negative: Vehicle+Cells. Dilutions should also be made in a ultra-low binding plate (Corning).
Assay Procedure: Peptide Treatment: Start assay by thawing the cells and plating in a 96 well, U-bottom tissue culture plate (Corning) as described above. Cell plates are placed in a tissue culture incubator (5% CO2, 37° C.). While cells are in the incubator, start making dilutions (optimally 1 hr or less) as described above. Cell plates are removed from the incubator and 10 ul of the 20× dilutions are added to the relevant wells. After the addition of inhibitors, cell plates are placed in the tissue culture incubator for 45 minutes. The plates are removed from the incubator and 10 ul of 21× TransAct is added to the relevant wells*. Plates are then returned to the incubator and incubated for 24 hours. After 24 hours, plates are spun for 5 minutes at 400×g.
* Activation: This assay can be run in two different formats—Activation and Inhibition. The procedure is the same except no TransAct is needed in the peptide wells for Activation. TransAct is only needed in the control wells. The purpose of this procedure is to determine the possible response from peptides alone.
Cytometric BeadArray (CBA): After the spin, supernatants (˜150 ul) are transferred to a new, ultra-low binding U-bottom plate. Supernatants are then frozen at −20° C. until thawed for CBA (BD) to determine levels of human IL-2, TNFα, IL-1b, IP-10, IL-10, and IFNg. CBA was run according to the manufacturers protocol.

[2] = system: primary human CD8+ T cells; assay: T cell activation markers in isolated CD8+ T cells +/- CD3/CD28 (ELISA, CD69 flow cytometry); format: cell-based
Experimental: To determine the effect of the Target Protein on T cell activity, the Target Protein, irrelevant proteins, a single amino acid mutant Target Protein and controls were applied to primary human T cells isolated from Peripheral Blood Mononuclear Cells (PBMCs)+/−CD3/CD28. 24 hours later the levels of extra-cellular CD69, IL-2, and TNFalpha (72 hours for IFN-gamma) were evaluated.
Isolation of PBMCfrom Leukopak: The isolation of peripheral blood mononuclear cells (PBMC) from a leukopak sample was conducted using the EasySep™ Direct Human PBMC Isolation Kit (Cat #19654, StemCell Technologies, Vancouver, BC, Canada) following the manufacturer's instructions. A leukopak sample was prepared within a volume range of 125 mL and added to a T-75 cm2 cell culture flask. EDTA was added to the sample to achieve a final concentration of 6 mM. The Isolation Cocktail provided in the kit was added to the sample without vortexing, and the sample was mixed and incubated at room temperature (RT) for 5 minutes. EasySep buffer was added to double the original sample volume, followed by the addition of vortexed RapidSpheres™. The flask was placed into a magnet and incubated at RT for 5 minutes. The cell suspension was carefully pipetted into a new T-75 cm2 flask, and RapidSpheres™ were added to the enriched cells. The flask was placed back into the magnet for a second separation at RT for 5 minutes. Finally, the cell suspension was carefully pipetted into a new tube or centrifuge bottle, and the isolated PBMCs were ready for use.
Isolation of primary human T-cells: Following the isolation of PBMCs, CD8^+ T cells were isolated using the EasySep™ Human CD8^+ T Cell Isolation Kit (Cat #17953, StemCell Technologies, Vancouver, BC, Canada) according to the manufacturer's instructions. The PBMC sample was prepared at a concentration of […] within a volume range of 2 mL and added to a 5 mL polystyrene round-bottom tube. The Isolation Cocktail provided in the kit (50 μL/mL of sample) was added to the sample without vortexing, mixed, and incubated at RT for 5 minutes. RapidSpheres™ were vortexed for 30 seconds to ensure even dispersion and then added to the sample at a concentration of 50 μL/mL of sample. The EasySep buffer was added to top up the sample to a total volume of 2.5 mL, and the sample was mixed by gently pipetting up and down 2-3 times. The tube (without lid) was placed into the magnet and incubated at RT for 3 minutes. After incubation, the magnet was picked up, and in one continuous motion, the magnet and tube were inverted, pouring the enriched cell suspension into a new tube. The isolated CD8^+ T cells were now ready for use.
Peptide treatment: Isolated CD8^+ T cells were plated in a 96-well format plate at a density of 1×10^5 cells per well. […]

[3] = CD8+ T cells, 10 μM, CD3/CD28, 24 hours, ELISA

Substance | inhibitor of the IL-4 signaling pathway (grade in words) (IL-4 signaling pathway; FIG. 9) | Relative activity (compared to cytokine only controls), Cytokine IL-4 (IL-4 signaling pathway; peptide 5 uM, cytokine at EC75, SEAP OD 600 nm) | Inhibition by Analyte: IL-1b [1] | Inhibition by Analyte: IL-2 [1] | Inhibition by Analyte: IP-10 [1] | Inhibition by Analyte: TNF [1] | T cell activation markers in CD8+ T cells (TNFα, IL-2, CD69) ([2]; 10 μM vs scrambled protein, with CD3/CD28 antibody cocktail, 24 hours) | T-cell activation marker IL-2 [2, 3] | T-cell activation marker TNFalpha [2, 3] | T-cell activation marker CD69 ([2]; CD8+ T cells, 10 μM, CD3/CD28, 24 hours, flow cytometry)
SEQ ID NO: 4227: novel peptide capable of inhibiting pro-inflammatory cytokine pathways (LAVFVIIRNLSDYLSFFFPFLLELLAVEEHHAYL; listed as Homo sapiens) | moderate | −50% |  |  |  |  |  |  |  | 
SEQ ID NO: 4524: novel, secreted peptide that enhances T cell activation (LDFIRAFLLLLVASVPGKIGSQNLTAQRPPVATSFLQMESSEPTVRK; listed as Homo sapiens) |  |  | X | X | X | X | increases | significantly up-regulates | significantly up-regulates | significantly up-regulates
